Assay results as given in patent US9849130B2 (KamTek, Inc., priority 2014, dated 2017).
In brackets after ≈: the same amount, converted by molar mass. Several values for one entry are separate records, joined by “and”; a condition that tells them apart may be missing. Equal entries are not always repeated. Entries after “also recorded” stand apart in the source; their conditions may differ. Where two headings read alike, the source gives them in different places.

Experiments:
[1] = test system: C. difficile VPI10463
[2] = test system: Lachnospiraceae and related bacterial strains; assay: MIC against Lachnospiraceae and related bacterial strains; type: cell-based, Lachnospiraceae spp.
[3] = test system: Fusobacterium; assay: MIC by microdilution in Brucella broth against Fusobacterium; type: cell-based, Fusobacterium spp.; details: Brucella broth, read-out: MIC
[4] = test system: Enterococcus faecalis; assay: MIC by microdilution in Mueller-Hinton broth against Enterococcus faecalis strains; type: cell-based; details: Enterococcus faecalis
[5] = test system: Enterococci faecium; assay: MIC by microdilution in Mueller-Hinton broth against Enterococci faecium strains; type: cell-based, Enterococcus faecium; details: Enterococcus faecium, Mueller-Hinton broth, read-out: MIC
[6] = test system: C. difficile; assay: Minimum bactericidal concentration (MBC) against C. difficile; type: cell-based, Clostridium difficile; details: for MBC: Clostridioides difficile
[7] = test system: Clostridium difficile (CD) strains; assay: microbe, parasite or virus in culture; type: cell-based
[8] = test system: C. perfringens MH310; assay: microbe, parasite or virus in culture; type: cell-based; details: Clostridium perfringens, MH310, C. perfringens MH310
[9] = test system: Bifidobacterium strains; assay: MIC by microdilution in BHI broth against Bifidobacterium strains; type: cell-based, Bifidobacterium spp.; details: BHI broth, read-out: MIC
[10] = test system: Staphylococcus aureus strains; assay: MIC by microdilution in Mueller-Hinton broth against Staphylococcus aureus strains; type: cell-based; details: Staphylococcus aureus
[11] = test system: Escherichia coli strains; assay: MIC by microdilution in Mueller-Hinton broth against Escherichia coli strains; type: cell-based; details: for MIC: Escherichia coli, Mueller-Hinton broth, read-out: MIC

CC(C)N=c1cc2n(-c3ccc(Cl)cc3)c3ccccc3nc-2cc1Nc1ccc(Cl)cc1 [CFM, 3-(p-chloroanilino)-10-(p-chlorophenyl)-2,10-dihydro-2-iso-propyliminophenazine]
MIC ([1]; Clostridioides difficile, VPI10463): 0.125 µg/mL (≈ 0.264 µM)
MIC ([1]; Clostridioides difficile, VPI10463, Expt. 1, fecal extract (human feces 20% w/v in BHI), C. difficile VPI10463): 0.5 µg/mL (≈ 1.06 µM)
MIC ([1]; Clostridioides difficile, VPI10463, Expt. 2, −fecal extract, C. difficile VPI10463): 0.062 µg/mL (≈ 0.131 µM)
MIC ([1]; Expt. 2, +fecal extract (human feces 20% w/v in BHI), C. difficile VPI10463): 0.125 µg/mL (≈ 0.264 µM)
MIC [2]: 0.125 µg/mL (≈ 0.264 µM)
MIC ([2]; Clostridiales bacterium, Clostridiales bacterium HM-84, broth microdilution, brucella broth, read-out: MIC): ≤ 0.031 µg/mL
MIC ([2]; Clostridiales bacterium, Clostridiales bacterium HM-182, broth microdilution, brucella broth, read-out: MIC): 0.25 µg/mL (≈ 0.528 µM)
MIC ([2]; Eubacterium sp. HM-178, broth microdilution, brucella broth): 0.125 µg/mL (≈ 0.264 µM)
MIC ([2]; Lachnospiraceae sp. HM-7, broth microdilution, brucella broth, read-out: MIC): ≤ 0.031 µg/mL
MIC ([2]; Lachnospiraceae sp. HM-150, broth microdilution, brucella broth, read-out: MIC): 0.25 µg/mL (≈ 0.528 µM)
MIC ([2]; Lachnospiraceae sp. HM-153, broth microdilution, brucella broth): 0.125 µg/mL (≈ 0.264 µM)
MIC ([2]; Lachnospiraceae sp. HM-154, broth microdilution, brucella broth, read-out: MIC): 0.5 µg/mL (≈ 1.06 µM)
MIC ([2]; Lachnospiraceae sp. HM-161, broth microdilution, brucella broth, read-out: MIC): 0.25 µg/mL (≈ 0.528 µM)
MIC ([2]; Lachnospiraceae sp. HM-480, broth microdilution, brucella broth, read-out: MIC): 0.062 µg/mL (≈ 0.131 µM)
MIC ([2]; Lachnospiraceae sp. HM-558, broth microdilution, brucella broth, read-out: MIC): 0.062 µg/mL (≈ 0.131 µM)
MIC ([2]; Lachnospiraceae sp. HM-768, broth microdilution, brucella broth, read-out: MIC): ≤ 0.031 µg/mL
MIC ([2]; Lachnospiraceae sp. HM-868, broth microdilution, brucella broth, read-out: MIC): 2 µg/mL (≈ 4.22 µM)
MIC ([2]; Peptostreptococcaceae sp. HM-766, broth microdilution, brucella broth, read-out: MIC): 1 µg/mL (≈ 2.11 µM)
susceptibility of Lachnospiraceae and related organisms (in words) ([2]; most of the members of this family): susceptible
MIC ([3]; F. nucleatum HM-75): > 32 µg/mL
MIC ([3]; F. nucleatum HM-260): > 32 µg/mL
MIC ([3]; F. nucleatum HM-992): > 32 µg/mL
MIC ([3]; F. nucleatum HM-993): 2 µg/mL (≈ 4.22 µM)
MIC ([3]; F. nucleatum HM-994): 32 µg/mL (≈ 67.6 µM)
MIC ([3]; F. nucleatum HM-995): > 32 µg/mL
MIC ([3]; F. nucleatum HM-996): 32 µg/mL (≈ 67.6 µM)
MIC ([3]; F. nucleatum HM-997): > 32 µg/mL
MIC ([3]; Fusobacterium, Fusobacterium sp. HM 42): > 32 µg/mL
MIC ([3]; Fusobacterium, Fusobacterium sp. HM 57): > 32 µg/mL
MIC ([3]; Fusobacterium, Fusobacterium sp. HM-556): 16 µg/mL (≈ 33.8 µM)
MIC ([3]; Fusobacterium, Fusobacterium sp. HM-758): > 32 µg/mL
MIC ([3]; Fusobacterium, Fusobacterium sp. HM-871): 32 µg/mL (≈ 67.6 µM)
MIC ([3]; Fusobacterium, Fusobacterium sp. HM-874): > 32 µg/mL
MIC ([3]; Fusobacterium, Fusobacterium sp. HM-875): 32 µg/mL (≈ 67.6 µM)
MIC ([4]; E. faecalis NR 31884, read-out: MIC): 32 µg/mL (≈ 67.6 µM)
MIC ([4]; E. faecalis NR 31885, read-out: MIC): 32 µg/mL (≈ 67.6 µM)
MIC ([4]; E. faecalis NR 31886, read-out: MIC): 32 µg/mL (≈ 67.6 µM)
MIC ([4]; E. faecalis NR 31887, read-out: MIC): 16 µg/mL (≈ 33.8 µM)
MIC ([4]; E. faecalis NR 31888, read-out: MIC): 32 µg/mL (≈ 67.6 µM)
MIC ([5]; E. faecium NR 31903): 4 µg/mL (≈ 8.45 µM)
MIC ([5]; E. faecium NR 31909): 2 µg/mL (≈ 4.22 µM)
MIC ([5]; E. faecium NR 31912): 2 µg/mL (≈ 4.22 µM)
MIC ([5]; E. faecium NR 31915): 16 µg/mL (≈ 33.8 µM)
MIC ([5]; E. faecium NR 31916): 8 µg/mL (≈ 16.9 µM)
MBC/MIC [6]: 2 and 1
MBC/MIC ratio range [6]: 1-2
MBC/MIC ([6]; CD isolate BAA1805 (hyper-virulent strain BI/NAP1/027)): 1
MBC ([6]; BAA1805): 0.125 µg/mL (≈ 0.264 µM)
MBC ([6]; CD isolate NR13430, read-out: MBC): 0.25 µg/mL (≈ 0.528 µM)
MBC ([6]; CD isolate NR13432, read-out: MBC): 0.25 µg/mL (≈ 0.528 µM)
MBC ([6]; CD isolate NR13437, read-out: MBC): 0.25 µg/mL (≈ 0.528 µM)
MBC ([6]; CD isolate NR32882, read-out: MBC): 0.5 µg/mL (≈ 1.06 µM)
MBC ([6]; CD isolate NR32883, read-out: MBC): 0.5 µg/mL (≈ 1.06 µM)
MBC ([6]; CD isolate NR332884, read-out: MBC): 0.25 µg/mL (≈ 0.528 µM)
MBC ([6]; CD isolate VPI10463, read-out: MBC): 0.25 µg/mL (≈ 0.528 µM)
MIC50 ([7]; Clostridioides difficile): 0.062 µg/mL (≈ 0.131 µM)
MIC90 ([7]; Clostridioides difficile): 0.25 µg/mL (≈ 0.528 µM)
MIC ([7]; Clostridioides difficile, BAA1805, CD isolate BAA1805 (hyper-virulent strain BI/NAP1/027), Table 6): 0.125 µg/mL (≈ 0.264 µM)
MIC ([7]; Clostridioides difficile, BAA1805, CD strain BAA1805 (hyper-virulent strain BI/NAP1/027), BB): 0.125 µg/mL (≈ 0.264 µM)
MIC ([7]; Clostridioides difficile, BAA1805, CD strain BAA1805 (hyper-virulent strain BI/NAP1/027), BHI): 0.125 µg/mL (≈ 0.264 µM)
MIC50 ([7]; n = 37): 0.062 µg/mL (≈ 0.131 µM)
MIC90 ([7]; n = 37): 0.25 µg/mL (≈ 0.528 µM)
MIC Range ([7]; n = 37): ≦0.031-0.25 μg/ml
MIC ([8]; BB): 0.5 µg/mL (≈ 1.06 µM)
MIC ([8]; BHI): 1 µg/mL (≈ 2.11 µM)
MIC ([9]; Bifidobacterium adolescentis HM-633): 1 µg/mL (≈ 2.11 µM)
MIC ([9]; Bifidobacterium breve HM-411): 2 µg/mL (≈ 4.22 µM)
MIC ([9]; Bifidobacterium breve HM-412): 2 µg/mL (≈ 4.22 µM)
MIC ([9]; Bifidobacterium breve HM-856): 4 µg/mL (≈ 8.45 µM)
MIC ([9]; Bifidobacterium breve HM-1120): > 32 µg/mL
MIC ([9]; Bifidobacterium longum HM-845): 1 µg/mL (≈ 2.11 µM)
MIC ([9]; Bifidobacterium longum HM-846): 2 µg/mL (≈ 4.22 µM)
MIC ([9]; Bifidobacterium longum HM-847): 1 µg/mL (≈ 2.11 µM)
MIC ([9]; Bifidobacterium, Bifidobacterium sp. HM-30): 0.5 µg/mL (≈ 1.06 µM)
MIC ([9]; Bifidobacterium, Bifidobacterium sp. HM-868): 2 µg/mL (≈ 4.22 µM)
MIC ([10]; Staphylococcus aureus strain NR 10129, read-out: MIC): 16 µg/mL (≈ 33.8 µM)
MIC ([10]; Staphylococcus aureus strain NR 10186, read-out: MIC): 2 µg/mL (≈ 4.22 µM)
MIC ([10]; Staphylococcus aureus strain NR 10187, read-out: MIC): > 32 µg/mL
MIC ([10]; Staphylococcus aureus strain NR 10188, read-out: MIC): 8 µg/mL (≈ 16.9 µM)
MIC ([10]; Staphylococcus aureus strain NR 10189, read-out: MIC): 8 µg/mL (≈ 16.9 µM)
MIC ([10]; Staphylococcus aureus strain NR 10191, read-out: MIC): 4 µg/mL (≈ 8.45 µM)
MIC ([10]; Staphylococcus aureus strain NR 10192, read-out: MIC): 8 µg/mL (≈ 16.9 µM)
MIC ([10]; Staphylococcus aureus strain NR 10193, read-out: MIC): 4 µg/mL (≈ 8.45 µM)
MIC ([10]; Staphylococcus aureus strain NR 10194, read-out: MIC): 4 µg/mL (≈ 8.45 µM)
MIC ([10]; Staphylococcus aureus strain NR 10198, read-out: MIC): 16 µg/mL (≈ 33.8 µM)
activity against E. coli (in words) [11]: relatively inactive; also recorded: not active
MIC ([11]; Escherichia coli strain NR 6): > 32 µg/mL
MIC ([11]; Escherichia coli strain NR 8): > 32 µg/mL
MIC ([11]; Escherichia coli strain NR 96): > 32 µg/mL
MIC ([11]; Escherichia coli strain NR 104): > 32 µg/mL
MIC ([11]; Escherichia coli strain NR 17626): > 32 µg/mL
MIC ([11]; Escherichia coli strain NR 17627): > 32 µg/mL
MIC ([11]; Escherichia coli strain NR 17633): > 32 µg/mL
MIC ([11]; Escherichia coli strain NR 17647): > 32 µg/mL
MIC ([11]; Escherichia coli strain NR 17650): > 32 µg/mL
